Here are results for seven cell lines from the supplement of paper PMC10307832.

Assay in all cases: relative viability (nuclei count vs DMSO), 5 days (fraction); higher = more cells survive
Compound in the assay “Bemcentinib + Dasatinib”: Nc1nc(Nc2ccc3c(c2)CC[C@@H](N2CCCC2)CC3)nn1-c1cc2c(nn1)-c1ccccc1CCC2 [Bemcentinib] + Cc1nc(Nc2ncc(C(=O)Nc3c(C)cccc3Cl)s2)cc(N2CCN(CCO)CC2)n1 [Dasatinib] (partner 0.075 µM)
An outline of the steps:
(§1)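 Relative viability divides the nuclei count in treated wells by that in vehicle wells. Lung cancer cell lines were seeded in 1536-well plates, dosed by pin tool the next day, and fixed and stained after 5 days in one step with final 0.05% Triton X-100, 1% formaldehyde and 1 ug/ml Hoechst. Dosing was a single drug or a fixed anchor-drug dose plus five library-drug doses (not always all listed) in √10 steps, and values are medians of duplicate plates imaged at 4×.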

Compound in assay [1]: CC1=CC=C(C=C1)C(=O)CN2C3=C(CCCC3)SC2=N [Pifithrin_alpha] + CC1(C)CCC(c2ccc(Cl)cc2)=C(CN2CCN(c3ccc(C(=O)NS(=O)(=O)c4ccc(N[C@H](CCN5CCOCC5)CSc5ccccc5)c(S(=O)(=O)C(F)(F)F)c4)cc3)CC2)C1 [Navitoclax] (partner 0.5 µM)
An outline of the steps: as §1

Compound in assay [2]: CC1=CC=C(C=C1)C(=O)CN2C3=C(CCCC3)SC2=N [Pifithrin_alpha] + CS(=O)(=O)CCNCc1ccc(-c2ccc3ncnc(Nc4ccc(OCc5cccc(F)c5)c(Cl)c4)c3c2)o1 [Lapatinib] (partner 2 µM)
A digest of the protocol:
as §1

Compound in the assay “Axitinib + Vorinostat”: CNC(=O)c1ccccc1Sc1ccc2c(/C=C/c3ccccn3)n[nH]c2c1 [Axitinib] + O=C(CCCCCCC(=O)Nc1ccccc1)NO [Vorinostat] (partner 1 µM)
An outline of the steps:
as §1

PC-3 [JPC-3]: the relative viability in the assay with Bemcentinib + Dasatinib (first compound 0.04 µM) came out at 1.04; in the assay with Bemcentinib + Dasatinib (first compound 0.1265 µM), 0.589; in the assay with Bemcentinib + Dasatinib (first compound 0.4 µM), 1.19; in the assay with Bemcentinib + Dasatinib (first compound 1.265 µM), 1.01; in the assay with Bemcentinib + Dasatinib (first compound 4 µM), 1.08; in assay [1] (first compound 1 µM), 0.749. Further, the relative viability came out at 0.74 in assay [1] (first compound 3.162 µM); 0.746 in assay [1] (first compound 10 µM); 0.789 in assay [1] (first compound 31.62 µM); 0.726 in assay [1] (first compound 100 µM); 0.392 in assay [2] (first compound 1 µM); 0.421 in assay [2] (first compound 3.162 µM). The relative viability in assay [2] (first compound 10 µM) is 0.401; in assay [2] (first compound 31.62 µM), 0.414; in assay [2] (first compound 100 µM), 0.326; with Axitinib + Vorinostat (first compound 0.005 µM), 0.787; in the assay with Axitinib + Vorinostat (first compound 0.05 µM) it was 0.94; in the assay with Axitinib + Vorinostat (first compound 0.1581 µM), 0.758. In the assay with Axitinib + Vorinostat (first compound 0.5 µM), the relative viability came to 0.857.

As for PC-14, the relative viability worked out at 0.236 in the assay with Bemcentinib + Dasatinib (first compound 0.04 µM); 0.259 with Bemcentinib + Dasatinib (first compound 0.1265 µM); 0.249 with Bemcentinib + Dasatinib (first compound 0.4 µM); 0.224 with Bemcentinib + Dasatinib (first compound 1.265 µM); 0.236 in the assay with Bemcentinib + Dasatinib (first compound 4 µM); 1.01 in assay [1] (first compound 1 µM). The relative viability in assay [1] (first compound 3.162 µM) is 0.988; in assay [1] (first compound 10 µM) it was 0.988; in assay [1] (first compound 31.62 µM), 0.881; in assay [1] (first compound 100 µM) it was 0.847; in assay [2] (first compound 1 µM) it was 0.337; in assay [2] (first compound 3.162 µM) it was 0.32. Moreover, the relative viability in assay [2] (first compound 10 µM) was 0.265; in assay [2] (first compound 31.62 µM), 0.271; in assay [2] (first compound 100 µM), 0.15; with Axitinib + Vorinostat (first compound 0.005 µM), 0.792; with Axitinib + Vorinostat (first compound 0.01581 µM), 0.336; in the assay with Axitinib + Vorinostat (first compound 0.05 µM), 0.702. Besides, the relative viability in the assay with Axitinib + Vorinostat (first compound 0.1581 µM) was determined as 0.643; with Axitinib + Vorinostat (first compound 0.5 µM) it was 1.06.

As for RERF-LC-KJ, the relative viability with Bemcentinib + Dasatinib (first compound 0.04 µM) is 0.847; in the assay with Bemcentinib + Dasatinib (first compound 0.1265 µM), 0.923; with Bemcentinib + Dasatinib (first compound 0.4 µM), 1.02; with Bemcentinib + Dasatinib (first compound 1.265 µM), 0.964; with Bemcentinib + Dasatinib (first compound 4 µM), 0.85; in assay [1] (first compound 1 µM), 0.591. Further, the relative viability stood at 0.619 in assay [1] (first compound 3.162 µM); 0.5 in assay [1] (first compound 10 µM); 0.824 in assay [1] (first compound 31.62 µM); 0.412 in assay [1] (first compound 100 µM); 0.819 in assay [2] (first compound 1 µM); 0.865 in assay [2] (first compound 3.162 µM). In addition, the relative viability is 0.836 in assay [2] (first compound 10 µM); 0.747 in assay [2] (first compound 31.62 µM); 0.768 in assay [2] (first compound 100 µM); 0.703 with Axitinib + Vorinostat (first compound 0.005 µM); 0.648 in the assay with Axitinib + Vorinostat (first compound 0.01581 µM); 0.725 with Axitinib + Vorinostat (first compound 0.05 µM). Moreover, the results for the relative viability in the assay with Axitinib + Vorinostat (first compound 0.1581 µM) and in the assay with Axitinib + Vorinostat (first compound 0.5 µM) were 0.705 and 0.803, respectively.

Consider SK-LU-1, for which the relative viability in the assay with Bemcentinib + Dasatinib (first compound 0.04 µM) turned out to be 0.181; in the assay with Bemcentinib + Dasatinib (first compound 0.1265 µM), 0.201; with Bemcentinib + Dasatinib (first compound 0.4 µM) it was 0.197; with Bemcentinib + Dasatinib (first compound 1.265 µM) it was 0.191; with Bemcentinib + Dasatinib (first compound 4 µM) it was 0.155; in assay [1] (first compound 1 µM), 1.07. The relative viability is 1.07 in assay [1] (first compound 3.162 µM); 1.07 in assay [1] (first compound 10 µM); 0.626 in assay [1] (first compound 31.62 µM); 0.823 in assay [1] (first compound 100 µM); 0.937 in assay [2] (first compound 1 µM); 0.911 in assay [2] (first compound 3.162 µM). Also, the relative viability in assay [2] (first compound 10 µM) came to 0.948; in assay [2] (first compound 31.62 µM), 0.599; in assay [2] (first compound 100 µM) it was 0.935; with Axitinib + Vorinostat (first compound 0.005 µM), 0.805; in the assay with Axitinib + Vorinostat (first compound 0.01581 µM), 0.835; in the assay with Axitinib + Vorinostat (first compound 0.05 µM) it was 0.808. Also, the relative viability with Axitinib + Vorinostat (first compound 0.1581 µM) came to 0.817; with Axitinib + Vorinostat (first compound 0.5 µM) it was 0.959.

As for SK-MES-1, the relative viability with Bemcentinib + Dasatinib (first compound 0.04 µM) stood at 0.303; with Bemcentinib + Dasatinib (first compound 0.1265 µM), 0.416; in the assay with Bemcentinib + Dasatinib (first compound 0.4 µM), 0.384; in the assay with Bemcentinib + Dasatinib (first compound 1.265 µM), 0.477; with Bemcentinib + Dasatinib (first compound 4 µM) it was 0.426; in assay [1] (first compound 1 µM) it was 1.19. In addition, the relative viability in assay [1] (first compound 3.162 µM) turned out to be 1.17; in assay [1] (first compound 10 µM) it was 1.16; in assay [1] (first compound 31.62 µM) it was 0.829; in assay [1] (first compound 100 µM), 0.924; in assay [2] (first compound 1 µM) it was 0.461; in assay [2] (first compound 3.162 µM), 0.447. The relative viability in assay [2] (first compound 10 µM) came to 0.458; in assay [2] (first compound 31.62 µM), 0.439; in assay [2] (first compound 100 µM), 0.447; with Axitinib + Vorinostat (first compound 0.005 µM), 1.1; in the assay with Axitinib + Vorinostat (first compound 0.01581 µM), 1.12; with Axitinib + Vorinostat (first compound 0.05 µM) it was 1.25. The relative viability in the assay with Axitinib + Vorinostat (first compound 0.1581 µM) turned out to be 1.02; with Axitinib + Vorinostat (first compound 0.5 µM) it was 1.27.

For SW 1573, the relative viability with Bemcentinib + Dasatinib (first compound 0.04 µM) amounted to 0.411; with Bemcentinib + Dasatinib (first compound 0.1265 µM) it was 0.52; with Bemcentinib + Dasatinib (first compound 0.4 µM), 0.611; with Bemcentinib + Dasatinib (first compound 1.265 µM), 0.477; with Bemcentinib + Dasatinib (first compound 4 µM) it was 0.636; in assay [1] (first compound 1 µM) it was 1.06. Besides, the relative viability came to 1.03 in assay [1] (first compound 3.162 µM); 1.18 in assay [1] (first compound 10 µM); 0.923 in assay [1] (first compound 31.62 µM); 0.893 in assay [1] (first compound 100 µM); 1.1 in assay [2] (first compound 1 µM); 1.14 in assay [2] (first compound 3.162 µM). The relative viability was 1.02 in assay [2] (first compound 10 µM); 0.798 in assay [2] (first compound 31.62 µM); 0.81 in assay [2] (first compound 100 µM); 0.735 with Axitinib + Vorinostat (first compound 0.005 µM); 0.789 with Axitinib + Vorinostat (first compound 0.01581 µM); 0.985 with Axitinib + Vorinostat (first compound 0.05 µM). Besides, the values for the relative viability in the assay with Axitinib + Vorinostat (first compound 0.1581 µM) and with Axitinib + Vorinostat (first compound 0.5 µM) were 0.741 and 0.783, respectively.

Take UMC-11: the relative viability with Bemcentinib + Dasatinib (first compound 0.04 µM) was determined as 0.462; in the assay with Bemcentinib + Dasatinib (first compound 0.1265 µM) it was 0.563; with Bemcentinib + Dasatinib (first compound 0.4 µM), 0.559; in the assay with Bemcentinib + Dasatinib (first compound 1.265 µM), 0.466; with Bemcentinib + Dasatinib (first compound 4 µM), 0.476; in assay [1] (first compound 1 µM), 0.288. For the same cell line, the relative viability in assay [1] (first compound 3.162 µM) turned out to be 0.312; in assay [1] (first compound 10 µM) it was 0.312; in assay [1] (first compound 31.62 µM) it was 0.337; in assay [1] (first compound 100 µM), 0.331; in assay [2] (first compound 1 µM), 1.03; in assay [2] (first compound 3.162 µM), 1.06. The relative viability was 0.933 in assay [2] (first compound 10 µM); 0.764 in assay [2] (first compound 31.62 µM); 1.06 in assay [2] (first compound 100 µM); 0.323 in the assay with Axitinib + Vorinostat (first compound 0.005 µM); 0.339 in the assay with Axitinib + Vorinostat (first compound 0.01581 µM); 0.401 in the assay with Axitinib + Vorinostat (first compound 0.05 µM). The relative viability in the assay with Axitinib + Vorinostat (first compound 0.1581 µM) is 0.408; with Axitinib + Vorinostat (first compound 0.5 µM) it was 0.36.
